Assay results taken from patent US20050256081A1, “Tetracycline derivatives for the treatment of ocular pathologies” (priority 2004, published 2005).
Several values for one entry are separate records, joined by “and”; a condition that tells them apart may be missing. Identical values can stand only once.

Key:
[1] = test system: corneal neovascularization; assay: Silver nitrate cauterization corneal neovascularization model, two drug combinations (Example 3); type: in vivo, Long Evans rats; settings: for effect on corneal neovascularization, individual agents: flurbiprofen 0.03% w/v, LMWH 10 mg/ml, administered as individual agents, data not shown
Description: Artificial corneal burns were induced in thirty-two eyes belonging to thirty-two Long Evans rats to determine the effects of doxycycline or another tetracycline derivative and low molecular weight heparin, doxycycline or another tetracycline derivative, and flurbiprofen, or flurbiprofen and low molecular weight heparin, on corneal neovascularization. All the eyes were examined to exclude any eyes with corneal scars and/or neovascularization prior to induction.
(§1) Neovascularization was induced in all eyes using silver nitrate cauterization. The animals were first anesthetized by intraperitoneal injection of a mixture of ketamine hydrochloride (25 mg/kg) with xylazine hydrochloride (5 mg/kg). The cornea was then anesthetized by a drop of 0.5% proparacaine and allowed to dry.
Group 1 (number of animals, n=8) received a 1:1 combination of 0.03% flurbiprofen sodium ophthalmic solution (Allergan, Irvine CA) and 10 mg/ml low molecular weight heparin (Enoxaparin, Aventis Pharmaceuticals Inc., Bridgewater N.J.); an actual concentration of 0.015% flurbiprofen with 5 mg/ml low molecular weight heparin. […] Group 3 (n=8) received a 1:1 combination of 20 mg/ml doxycycline and 10 mg/ml low molecular weight heparin; an actual concentration of 10 mg/ml doxycycline with 5 mg/ml low molecular weight heparin. Group 4 (n=8) received balanced salt solution (control). The drops were applied topically immediately after cauterization; treatments were administered two times per day for seven days.
The presence of new vessels (neovascularization) and the extent of new vessel formation was assessed by slit lamp photography and histology. Inhibition of vessel proliferation was evaluated by measuring vessel progression from the outer cornea (corneal limbus) into the comea. As previously described, it will be appreciated that any reduction of new vessel proliferation and/or regression of existing vessels is therapeutic, and that complete inhibition and/or regression is not required, and also that reduction includes regression of existing vessels.
The extent of corneal neovascularization was determined by slit lamp microscopy with photography (SL-7E, Topcon, Tokyo Japan) on day seven after cauterization. The animals were euthanized in a carbon dioxide chamber under deep general anesthesia. […]
Corneal neovascularization was assessed by scanning (Cano scan 9900F, Canon, Tokyo Japan) the slit lamp photographs into high resolution digital images. […] The percentage area of the cornea covered by the corneal scar in each eye was also determined. […]
Statistical analysis was performed using Statistical Analysis System (SPSS 11.5) software. The difference between the groups was determined using Mann-Whitney U Analysis test; a p value less than 0.05 was considered significant.

[2] = test system: corneal neovascularization; assay: Silver nitrate cauterization corneal neovascularization model, single agents (Example 5); type: in vivo, Long Evans pigmented rats; settings: for NV area compared to the control group (statistical significance): GLM with Tukey's studentized range test, significance at p≦0.05; for neovascularization on digitally enhanced slit lamp photograph: seven days after induction of corneal burn, FIG. 11; for Percent Area Of Neovascularization Mean ± SD: topical two times daily for 7 days, 7th day, ascomycin 50 μg/ml, flurbiprofen 0.03%, doxycycline 20 mg/ml, LMWH 10 mg/ml, triamcinolone acetonide 4 mg/ml
[3] = test system: corneal neovascularization; assay: Inhibition of corneal neovascularization after silver nitrate/potassium nitrate corneal burn, graded by slit lamp photography and histology (Example 1); type: in vivo, rat; settings: agent alone, topically applied twice a day; doxycycline about 1 to about 20 mg/ml, low molecular weight heparin about 10 mg/ml, triamcinolone about 4 mg/ml; compared to controls
Experimental: Artificial corneal burns were induced in rat eyes to determine the effects of doxycycline, steroids, and low molecular weight heparin, alone and in combinations, on corneal neovascularization.
The presence of new vessels (neovascularization) and the extent of new vessel formation was assessed by split lamp photography and histology. Inhibition of vessel proliferation was evaluated by measuring vessel progression from the outer cornea (corneal limbus) into the cornea. A numerical rating system was used to quantitate the degree of inhibition (+, ++, and +++ inhibition), with “+ inhibition” indicating inhibition one-third of the distance from the limbus of the cornea to the center; “++ inhibition” indicating inhibition two-thirds of the distance from the limbus to the center; “+++ inhibition” indicating complete inhibition of vessels between the limbus and the center; and the designation “± inhibition” indicating an intermediate degree of inhibition (e.g, less than +, ++, or +++) .

[4] = test system: corneal neovascularization; assay: Silver nitrate cauterization corneal neovascularization model, doxycycline concentrations and pH (Example 4); type: in vivo, Long Evans pigmented rats; settings: for Percent area of neovascularization (Mean ± SD): topical two times per day for seven days, n=6, monohydrate
Description: Thirty-six eyes belonging to thirty-six male Long Evans pigmented rats (200 g to 250 g) were divided into […] groups. Treated eyes were topically administered doxycycline at the following concentrations and having the indicated pH values: 0.05%^w/v (pH 3.3), 0.1%^w/v (pH 3.1), 1%^w/v (pH 2.3), 2%^w/v (pH 2.1), 2%^w/v (adjusted to pH of 7.4). One eye of each animal served as a treated eye and the other eye served as a non-treated control eye. Artificial corneal bums were induced. All the eyes were examined to exclude any eyes with corneal scars and/or neovascularization prior to induction.
as §1
The presence of new vessels (neovascularization) and the extent of new vessel formation was assessed by slit lamp photography and histology. Inhibition of vessel proliferation was evaluated by measuring vessel progression from the outer cornea (corneal limbus) into the cornea. As previously described, it will be appreciated that any reduction of new vessel proliferation and/or regression of existing vessels is therapeutic, and that complete inhibition and/or regression is not required, and also that reduction indudes regression of existing vessels.
Neovascularization was evaluated by an examiner who was blinded as to the treatment groups to minimize the observer bias.
The animals were euthanized in a carbon dioxide chamber under deep general anesthesia. The eyes were enucleated and fixed in 10% formaldehyde.
Corneal neovascularization was assessed by scanning (Cano scan 9900F, Canon, Tokyo Japan) the slit lamp photographs into high resolution digital images. […] The percentage area of the cornea covered by the corneal scar in each eye was also determined. A drawing of corneal blood vessels was made to compare with digital photos and ensure that no vascular area was omitted during calculation of percent area.
Statistical analyses were performed using each animal as an experimental unit with Statistical Analysis System (SPSS 11.5) software. Kruscal-Vallis and Mann-Whitney U Analysis was conducted and treatment means were separated at p<0.05 with least significant difference (LSD) test. A p value <0.05 was considered significant.
For histopathologic evaluation, sedated animals were euthanized with inhaled CO2 and enucleation was performed immediately. […] The eyes were prepared for histological examination using 10% formaldehyde. […] The corneas were then soaked in xylene and paraffin, and later embedded in paraffin and cut at […] for staining with hematoxylin and eosin (H&E) for light microscopy.
Light microscopic examination was performed on every microscopic section.

CC(C(=O)[O-])c1ccc(-c2ccccc2)c(F)c1.O.O.[Na+] (racemic) [flurbiprofen, sodium (±)-2-(2-fluoro-4-biphenylyl)-propionate dihydrate] was tested, and the “effect on corneal neovascularization, individual agents” value [1] was “did not significantly decrease corneal neovascularization”, the “NV area compared to the control group (statistical significance)” value [2] was “no statistically significant differences” and the “neovascularization on digitally enhanced slit lamp photograph” value [2] was “neovascularization is quite prominent”. For the same compound, the “Percent Area Of Neovascularization Mean ± SD” value ([2]; dihydrate) was 50.5%±18.7% and the “Percent Area Of Neovascularization Mean ± SD” value ([2]; listed as Flurbiprofen, dihydrate) was 50.6 ± 18.7%.
With CC[C@@H]1/C=C(\C)C[C@H](C)C[C@H](OC)[C@H]2O[C@@](O)(C(=O)C(=O)N3CCCC[C@H]3C(=O)O[C@H](/C(C)=C/[C@@H]3CC[C@@H](O)[C@H](OC)C3)[C@H](C)[C@@H](O)CC1=O)[C@H](C)C[C@@H]2OC [ascomycin] the “NV area compared to the control group (statistical significance)” value [2] was “no statistically significant differences”, the “Percent Area Of Neovascularization Mean ± SD” value [2] was 56.0%±22.4% and the “Percent Area Of Neovascularization Mean ± SD” value ([2]; listed as Ascomycin) was 56.0 ± 22.4%.
In the case of CC1c2cccc(O)c2C(=O)C2=C(O)C3(O)C(=O)C(C(N)=O)=C(O)C(N(C)C)C3C(O)C21.O (centres unmarked) [doxycycline, 4-(dimethylamino)-1,4,4a,5,5a,6,11,12a-octahydro3,5,10,12,12a-pentahydroxy-6-methyl-1,11-dioxo-2-naphthacenecarboxamide monohydrate], the inhibition of neovascularization [3] is reported as “+”, the “effect on corneal neovascularization, individual agent” value ([1]; doxycycline administered at 10 mg/ml) is reported as “not when administered at 10 mg/ml” and the “effect on corneal neovascularization, individual agent” value ([1]; doxycycline administered at 20 mg/ml) is reported as “did significantly inhibit”. The “histology (H&E), new vessels and inflammatory cells” value (“histology (H&E)” for short) ([4]; 0.05% doxycycline, FIG. 8A) was “new vessels and inflammatory cells through the entire corneal stroma”, the “Percent area of neovascularization (Mean ± SD)” value (from here on “Percent area … (Mean ± SD)”) ([4]; 0.05% w/v doxycycline, pH 3.3, listed as Doxycycline) was 69.83 ± 17.98% and the “Percent area … (Mean ± SD)” value ([4]; 0.05% w/v doxycycline, pH 3.3) was 69.8±17.9%. The “histology (H&E)” value ([4]; 0.1% doxycycline, FIG. 8B) was “new vessels and inflammatory cells through the entire corneal stroma”, the “Percent area … (Mean ± SD)” value ([4]; 0.1% w/v doxycycline, pH 3.1, listed as Doxycycline) was 64.48 ± 14.04% and the “Percent area … (Mean ± SD)” value ([4]; 0.1% w/v doxycycline, pH 3.1) was 64.5±14.0%. For the same compound, the “histology (H&E)” value ([4]; 1% doxycycline, FIG. 8C) was “inflammatory cells and there was neovascularization in the stroma far from the corneal burn”, the “Percent area … (Mean ± SD)” value ([4]; 1% w/v doxycycline, pH 2.3, listed as Doxycycline) was 56.35 ± 20.84% and the “Percent area … (Mean ± SD)” value ([4]; 1% w/v doxycycline, pH 2.3) was 56.3±20.8%. For the same compound, the “histology (H&E)” value ([4]; 2% doxycycline adjusted to a substantially neutral pH, FIG. 8E) was “fewer inflammatory cells and less neovascularization in the stroma than eyes administered 1% doxycycline”, the “histology (H&E)” value ([4]; 2% doxycycline not pH adjusted, FIG. 8D) was “fewer inflammatory cells and less neovascularization in the stroma than eyes administered 1% doxycycline” and the “mean percentage area of neovascularization, 2% doxycycline pH neutralized compared with 2% doxycycline not adjusted for pH” value ([4]; 2% doxycycline, pH neutralized) was “significantly less”. For the same compound, the “Percent area … (Mean ± SD)” value ([4]; 2% w/v doxycycline adjusted to pH 7.4, listed as Doxycycline) was 36.2 ± 4.3%, the “Percent area … (Mean ± SD)” value ([4]; 2% w/v doxycycline adjusted to pH 7.4) was 36.2±4.3% and the “Percent area … (Mean ± SD)” value ([4]; 2% w/v doxycycline, pH 2.1 (not adjusted for pH), listed as Doxycycline) was 54.78 ± 5.95%. The “Percent area … (Mean ± SD)” value ([4]; 2% w/v doxycycline, pH 2.1 (not adjusted for pH)) was 54.7±5.9%, the “NV area compared to the control group (statistical significance)” value [2] was “significant reduction” and the “neovascularization on digitally enhanced slit lamp photograph” value [2] was “neovascularization is less prominent than in control group”. For the same compound, the “Percent Area Of Neovascularization Mean ± SD” value ([2]; listed as Doxycycline, monohydrate) was 35.5 ± 29.1% and the “Percent Area Of Neovascularization Mean ± SD” value ([2]; monohydrate) was 35.5%±29.1%.
low molecular weight heparin was tested, and the inhibition of neovascularization [3] was “+”, the “effect on corneal neovascularization, individual agents” value [1] was “did not significantly decrease corneal neovascularization” and the “NV area compared to the control group (statistical significance)” value [2] was “no statistically significant differences”. The “Percent Area Of Neovascularization Mean ± SD” value [2] was 66.7%±9.9% and 66.7 ± 9.9%.
